Experimental data taken from PubChem BioAssay AID2060490 (Molecular Pharmacology Branch, DTP, NCI, 2025).

System: 885512-296-R-J2-PDC complex spheroid viability
Assay: Anticancer human tumor 885512-296-R-J2-PDC patient-derived breast carcinoma cell line growth inhibition [GQUAD]
Settings: for IC50: curve of first compound; for viability, T/C: stronger effect = lower value
How it was run: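 Viability of tumor cells grown as complex spheroids with endothelial and stromal cells, exposed to drug combinations. Top concentration at or near clinical Cmax (else 10 microM), diluted in half-log increments.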

[1] = second compound 0.0316 µM, first compound 0.0316 µM
[2] = second compound 0.0316 µM, first compound 0.316 µM
[3] = second compound 0.1 µM, first compound 0.0316 µM
[4] = second compound 0.1 µM, first compound 0.316 µM
[5] = second compound 0.316 µM, first compound 0.0316 µM
[6] = second compound 0.316 µM, first compound 0.316 µM
[7] = second compound 1 µM, first compound 0.0316 µM
[8] = second compound 1 µM, first compound 0.316 µM
[9] = second compound 3.16 µM, first compound 0.0316 µM
[10] = second compound 3.16 µM, first compound 0.316 µM
[11] = second compound 10 µM, first compound 0.0316 µM
[12] = second compound 10 µM, first compound 0.316 µM
[13] = second compound 0.0316 µM, first compound 0.1 µM
[14] = second compound 0.0316 µM, first compound 1 µM
[15] = second compound 0.0316 µM, first compound 3.16 µM
[16] = second compound 0.0316 µM, first compound 10 µM
[17] = second compound 0.1 µM, first compound 0.1 µM
[18] = second compound 0.1 µM, first compound 1 µM
[19] = second compound 0.1 µM, first compound 3.16 µM
[20] = second compound 0.1 µM, first compound 10 µM
[21] = second compound 0.316 µM, first compound 0.1 µM
[22] = second compound 0.316 µM, first compound 1 µM
[23] = second compound 0.316 µM, first compound 3.16 µM
[24] = second compound 0.316 µM, first compound 10 µM
[25] = second compound 1 µM, first compound 0.1 µM
[26] = second compound 1 µM, first compound 1 µM
[27] = second compound 1 µM, first compound 3.16 µM
[28] = second compound 1 µM, first compound 10 µM
[29] = second compound 3.16 µM, first compound 0.1 µM
[30] = second compound 3.16 µM, first compound 1 µM
[31] = second compound 3.16 µM, first compound 3.16 µM
[32] = second compound 3.16 µM, first compound 10 µM
[33] = second compound 10 µM, first compound 0.1 µM
[34] = second compound 10 µM, first compound 1 µM
[35] = second compound 10 µM, first compound 3.16 µM
[36] = second compound 10 µM, first compound 10 µM
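Note: spheroids exposed to the compounds for one week.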
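Throughout, for viability, T/C: percent of tumor spheroid viability relative to DMSO vehicle control wells.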

SMILES: CCc1c2c(nc3ccc(O)cc13)-c1cc3c(c(=O)n1C2)COC(=O)[C@]3(O)CC + Cc1[nH]c2ccc(F)cc2c1-c1nc2c3cccnc3c3ncccc3c2[nH]1
- IC50 (second compound 0.0316 µM): < 0.999 nM
- IC50 (second compound 0.1 µM): < 0.999 nM
- IC50 (second compound 0.316 µM): < 0.999 nM
- IC50 (second compound 1 µM): < 0.999 nM
- IC50 (second compound 3.16 µM): < 0.999 nM
- IC50 (second compound 10 µM): < 0.999 nM
- viability, T/C (second compound 0.0316 µM, first compound 0.000999 µM): 26.3%
- viability, T/C (second compound 0.0316 µM, first compound 0.00316 µM): 9.48%
- viability, T/C (second compound 0.0316 µM, first compound 0.00999 µM): 6.06%
- viability, T/C [1]: 3.24%
- viability, T/C (second compound 0.0316 µM, first compound 0.0999 µM): 2.09%
- viability, T/C [2]: 1.42%
- viability, T/C (second compound 0.1 µM, first compound 0.000999 µM): 25.8%
- viability, T/C (second compound 0.1 µM, first compound 0.00316 µM): 9.37%
- viability, T/C (second compound 0.1 µM, first compound 0.00999 µM): 5.76%
- viability, T/C [3]: 2.48%
- viability, T/C (second compound 0.1 µM, first compound 0.0999 µM): 1.88%
- viability, T/C [4]: 1.48%
- viability, T/C (second compound 0.316 µM, first compound 0.000999 µM): 28.2%
- viability, T/C (second compound 0.316 µM, first compound 0.00316 µM): 9.08%
- viability, T/C (second compound 0.316 µM, first compound 0.00999 µM): 4.66%
- viability, T/C [5]: 2.27%
- viability, T/C (second compound 0.316 µM, first compound 0.0999 µM): 1.56%
- viability, T/C [6]: 1.34%
- viability, T/C (second compound 1 µM, first compound 0.000999 µM): 26%
- viability, T/C (second compound 1 µM, first compound 0.00316 µM): 8.76%
- viability, T/C (second compound 1 µM, first compound 0.00999 µM): 2.75%
- viability, T/C [7]: 1.69%
- viability, T/C (second compound 1 µM, first compound 0.0999 µM): 1.68%
- viability, T/C [8]: 1.43%
- viability, T/C (second compound 3.16 µM, first compound 0.000999 µM): 3.36%
- viability, T/C (second compound 3.16 µM, first compound 0.00316 µM): 2.2%
- viability, T/C (second compound 3.16 µM, first compound 0.00999 µM): 2.07%
- viability, T/C [9]: 1.56%
- viability, T/C (second compound 3.16 µM, first compound 0.0999 µM): 1.71%
- viability, T/C [10]: 2.07%
- viability, T/C (second compound 10 µM, first compound 0.000999 µM): 1.69%
- viability, T/C (second compound 10 µM, first compound 0.00316 µM): 1.34%
- viability, T/C (second compound 10 µM, first compound 0.00999 µM): 1.31%
- viability, T/C [11]: 1.08%
- viability, T/C (second compound 10 µM, first compound 0.0999 µM): 0.89%
- viability, T/C [12]: 1.57%

SMILES: COc1cccc2c1C(=O)c1c(O)c3c(c(O)c1C2=O)CC(O)(C(=O)CO)CC3OC1CC(N)C(O)C(C)O1 (stereo unspecified) + Cc1cnc(CNC(=O)c2c(=O)c3ccc(N4CCCN(C)CC4)nc3n3c2sc2ccccc23)cn1
- IC50 (second compound 0.0316 µM): 60.1 nM
- IC50 (second compound 0.1 µM): < 31.6 nM
- IC50 (second compound 0.316 µM): < 31.6 nM
- IC50 (second compound 1 µM): < 31.6 nM
- IC50 (second compound 3.16 µM): < 31.6 nM
- IC50 (second compound 10 µM): < 31.6 nM
- viability, T/C [1]: 71%
- viability, T/C [13]: 30.1%
- viability, T/C [2]: 21.9%
- viability, T/C [14]: 4.72%
- viability, T/C [15]: 0.41%
- viability, T/C [16]: 2.74%
- viability, T/C [3]: 50.4%
- viability, T/C [17]: 27.2%
- viability, T/C [4]: 20.9%
- viability, T/C [18]: 10.3%
- viability, T/C [19]: 0.59%
- viability, T/C [20]: 2.89%
- viability, T/C [5]: 28.2%
- viability, T/C [21]: 23.7%
- viability, T/C [6]: 18.5%
- viability, T/C [22]: 8.18%
- viability, T/C [23]: 0.4%
- viability, T/C [24]: 1.91%
- viability, T/C [7]: 19.8%
- viability, T/C [25]: 25.2%
- viability, T/C [8]: 13.7%
- viability, T/C [26]: 3.8%
- viability, T/C [27]: 0.09%
- viability, T/C [28]: 0.32%
- viability, T/C [9]: 26.7%
- viability, T/C [29]: 25.6%
- viability, T/C [10]: 15.1%
- viability, T/C [30]: 0.12%
- viability, T/C [31]: 0.12%
- viability, T/C [32]: 0.15%
- viability, T/C [11]: 0.07%
- viability, T/C [33]: 0.14%
- viability, T/C [12]: 0.22%
- viability, T/C [34]: 0.15%
- viability, T/C [35]: 0.2%
- viability, T/C [36]: 0.21%

SMILES: CC1COCCN1c1cc(C2(O)CC3CCC(C2)O3)c2cnn(-c3ccn[nH]3)c2n1 (stereo unspecified) + CN(C)c1ccc(Nc2c3ccc(NC(=O)CCN4CCCC4)cc3nc3cc(NC(=O)CCN4CCCC4)ccc23)cc1
- IC50 (second compound 0.0316 µM): < 31.6 nM
- IC50 (second compound 0.1 µM): < 31.6 nM
- IC50 (second compound 0.316 µM): < 31.6 nM
- IC50 (second compound 1 µM): < 31.6 nM
- IC50 (second compound 3.16 µM): < 31.6 nM
- IC50 (second compound 10 µM): < 31.6 nM
- viability, T/C [1]: 25.4%
- viability, T/C [13]: 5.25%
- viability, T/C [2]: 3.07%
- viability, T/C [14]: 5.38%
- viability, T/C [15]: 6.51%
- viability, T/C [16]: 7.85%
- viability, T/C [3]: 30%
- viability, T/C [17]: 5.86%
- viability, T/C [4]: 3.33%
- viability, T/C [18]: 4.56%
- viability, T/C [19]: 7.53%
- viability, T/C [20]: 8.91%
- viability, T/C [5]: 22.3%
- viability, T/C [21]: 6.08%
- viability, T/C [6]: 5.15%
- viability, T/C [22]: 4.96%
- viability, T/C [23]: 6.17%
- viability, T/C [24]: 8.92%
- viability, T/C [7]: 29.2%
- viability, T/C [25]: 3.86%
- viability, T/C [8]: 4.06%
- viability, T/C [26]: 4.6%
- viability, T/C [27]: 6.32%
- viability, T/C [28]: 7.75%
- viability, T/C [9]: 18.8%
- viability, T/C [29]: 5.47%
- viability, T/C [10]: 3.21%
- viability, T/C [30]: 4.64%
- viability, T/C [31]: 6.84%
- viability, T/C [32]: 6.31%
- viability, T/C [11]: 12.7%
- viability, T/C [33]: 4.76%
- viability, T/C [12]: 4.43%
- viability, T/C [34]: 2.68%
- viability, T/C [35]: 3.3%
- viability, T/C [36]: 1.22%
